Results taken from patent US7314939B2, “Compositions and methods for inhibiting TGF-β” (Millennium Pharmaceuticals, Inc., priority 2003, dated 2008).

Key:
[1] = test system: TGF-β stimulated normal human lung fibroblasts (NHLF); test: Cell-based assays in TGF-β stimulated NHLF (P-Smad2, PAI-1, collagen, fibronectin); settings: Fibroblast, P-Smad2, PAI-1, collagen and fibronectin assays
Protocol: ELISA Assay for TGF-β Stimulated Smad2 Phosphorylation
Serum-starved normal human lung fibroblasts (NHLF) in 24-well plate were treated with or without different concentrations of testing compounds for 30 min. The cells were then stimulated with TGF-β for one hour. After fixing, permeabilizing, and blocking, the cells were incubated with phospho-Smad2 specific antibodies followed by HRP-conjugated secondary antibody. The extent of Smad2 phosphorylation was then detected using HRP substrate and read with an ELISA plate reader. IC50 for each testing compound was determined using the PRISM3 program.
ELISA Assay for TGF-β Stimulated PAI-1 Secretion
Serum-starved NHLF in 24-well plates were treated with or without different concentrations of testing compounds for 30 min. The cells were then stimulated with TGF-β and incubated in a 37° C. incubator for 24 hours. The media were collected and added to 96-well plates coated with anti-PAI-1 antibodies. The secreted PAI-1 was then detected with another PAI-1 specific antibody followed by HRP-conjugated secondary antibody. The secretion of PAI-1 was detected using HRP substrate and read with an ELISA plate reader. IC50 for each testing compound was determined using the PRISM3 program.
SIRCOL Collagen Assay for TGF-β Stimulated Cells
Serum-starved NHLF in 24-well plates were treated with or without different concentrations of testing compounds for 30 min. The cells were then stimulated with TGF-β and incubated for 24 hours. The media were collected and SIRCOL dye reagent was added. After spinning and washing, the pellets were resuspended in alkali reagent and read with an ELISA plate reader. IC50 for each testing compound was determined using the PRISM3 program.
Detection of TGF-β Stimulated Fibronectin Expression
Serum-starved NHLF in 24-well plates were treated with or without different concentrations of testing compounds for 30 min. The cells were then stimulated with TGF-β and incubated for 24 hours. […] The signal was then detected using an ELISA reader. IC50 for each testing compound was determined using the PRISM3 program. […]

ALK5 = biological target: T1, ALK5 (Homo sapiens, UniProt P36897); test: TGF-β (ALK5) phosphorylation: GST-ALK5 autophosphorylation screen and in vitro kinase of HA-ALK5 (IC50); type: biochemical
T1 construct: An expression construct containing full-length ALK5 C-terminally tagged with HA was transfected into COS7 cells; made in house; host or cells: COS7 cells (transfected; isolated by anti-HA immunoprecipitation)
T1 sequence (P36897 34-503): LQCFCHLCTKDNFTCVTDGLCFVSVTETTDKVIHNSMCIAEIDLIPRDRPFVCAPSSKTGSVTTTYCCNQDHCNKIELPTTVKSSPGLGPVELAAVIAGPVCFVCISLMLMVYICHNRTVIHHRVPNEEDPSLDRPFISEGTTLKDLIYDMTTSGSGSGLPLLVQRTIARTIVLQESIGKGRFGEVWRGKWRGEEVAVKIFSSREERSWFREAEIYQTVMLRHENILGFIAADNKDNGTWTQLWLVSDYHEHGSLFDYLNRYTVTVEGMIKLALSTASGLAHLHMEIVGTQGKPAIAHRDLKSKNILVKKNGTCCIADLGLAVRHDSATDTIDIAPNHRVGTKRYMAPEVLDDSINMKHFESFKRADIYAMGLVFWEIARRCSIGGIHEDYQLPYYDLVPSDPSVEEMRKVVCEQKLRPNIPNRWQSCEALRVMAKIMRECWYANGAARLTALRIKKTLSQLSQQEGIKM
Source text: The autophosphorylation of GST-ALK5 was developed for primary screening of the compounds that inhibit TGF-β signaling by interacting with ALK5. HA-ALK5 assay is a secondary screening assay to confirm the inhibitory compounds that were selected from the primary screening, and also for the determination of IC50 for each compound.
Autophosphorylation Assay of GST-ALK5
The cytoplasmic domain of ALK5 was fused to glutathione S-transferase (GST) and the GST-ALK5 fusion protein was expressed in a baculovirus expression system. GST-ALK5 was isolated with glutathione Sepharose 4B beads (Pharmacia Biotech, Sweden) and stored at −80° C. until use.
For detection of GST-ALK5 autophosphorylation and screening of inhibitory compounds, an aliquot of GST-ALK5 in 1× kinase buffer including [^33P]-γ-ATP was added to 96-well plates in the presence or absence of compounds. The mixture was then incubated at room temperature for 30 min and transferred to each well of a Filterplate with vacuum. The Filterplate was then washed 3 times and radioactivity in each well was counted in a Packard TopCount.
In Vitro Kinase of HA-ALK5
An expression construct containing full-length ALK5 C-terminally tagged with HA was transfected into COS7 cells, and HA-ALK5 was isolated by immunoprecipitation with anti-HA antibodies. Aliquots of immunoprecipitated HA-ALK5 in 1× kinase buffer plus [^33P]-γ-ATP was added to 96-well plates in the presence or absence of different concentrations of testing compounds, and incubated at room temperature for 60 min. The reaction mixture was then transferred to a Filterplate. The plate was washed three times and radioactivity in each well counted. IC50 for each compound was determined using the Prism3 program.

With `Fc1c(-c2cccc(Cl)c2)nc2ccccc2c1Nc1ccncc1` [Compound 7, [2-(3-Chloro-phenyl)-3-fluoro-quinolin-4-yl]-pyridin-4-yl-amine] the IC50 [1] was less than 10 µM and the IC50 (ALK5) was less than 10 µM.

`Fc1c(-c2ccc(Cl)s2)nc2ccccc2c1Nc1ccncc1` [Compound 51, [2-(5-Chloro-thiophen-2-yl)-3-fluoro-quinolin-4-yl]-pyridin-4-yl-amine] was tested, and the IC50 [1] was less than 10 µM and the IC50 (ALK5) was less than 10 µM.

`Cc1ccc(-c2nc3ccccc3c(Nc3ccncc3)c2F)o1` [Compound 55, [3-Fluoro-2-(5-methyl-furan-2-yl)-quinolin-4-yl]-pyridin-4-yl-amine] showed an IC50 [1] of less than 10 µM and an IC50 (ALK5) of less than 10 µM.
